Legend:
[1] = system: Staphylococcus aureus; assay: Antibacterial activity against Staphylococcus aureus at 100 ug/ml after 24 hrs agar diffusion method; type: functional; conditions: read-out: DIZ
[2] = system: Salmonella typhi; assay: Antibacterial activity against Salmonella typhi at 75 ug/ml after 24 hrs agar diffusion method; type: functional, Salmonella enterica subsp. enterica serovar Typhi; conditions: Salmonella enterica, read-out: DIZ
[3] = system: Proteus mirabilis; assay: Antibacterial activity against Proteus mirabilis at 25 ug/ml after 24 hrs agar diffusion method; type: functional; conditions: read-out: DIZ
[4] = system: Staphylococcus aureus; assay: Antibacterial activity against Staphylococcus aureus at 25 ug/ml after 24 hrs agar diffusion method; type: functional; conditions: read-out: DIZ
[5] = system: Proteus vulgaris; assay: Antibacterial activity against Proteus vulgaris at 50 ug/ml after 24 hrs agar diffusion method; type: functional; conditions: read-out: DIZ
[6] = system: Proteus vulgaris; assay: Antibacterial activity against Proteus vulgaris at 25 ug/ml after 24 hrs agar diffusion method; type: functional; conditions: read-out: DIZ
[7] = system: Staphylococcus aureus; assay: Antibacterial activity against Staphylococcus aureus at 50 ug/ml after 24 hrs agar diffusion method; type: functional; conditions: read-out: DIZ
[8] = system: Proteus mirabilis; assay: Antibacterial activity against Proteus mirabilis at 100 ug/ml after 24 hrs agar diffusion method; type: functional; conditions: read-out: DIZ
[9] = system: Proteus vulgaris; assay: Antibacterial activity against Proteus vulgaris at 100 ug/ml after 24 hrs agar diffusion method; type: functional; conditions: read-out: DIZ
[10] = system: Salmonella typhi; assay: Antibacterial activity against Salmonella typhi at 50 ug/ml after 24 hrs agar diffusion method; type: functional, Salmonella enterica subsp. enterica serovar Typhi; conditions: Salmonella enterica, read-out: DIZ
[11] = system: Proteus mirabilis; assay: Antibacterial activity against Proteus mirabilis at 75 ug/ml after 24 hrs agar diffusion method; type: functional; conditions: read-out: DIZ
[12] = system: Staphylococcus aureus; assay: Antibacterial activity against Staphylococcus aureus at 75 ug/ml after 24 hrs agar diffusion method; type: functional; conditions: read-out: DIZ
[13] = system: Proteus mirabilis; assay: Antibacterial activity against Proteus mirabilis at 50 ug/ml after 24 hrs agar diffusion method; type: functional; conditions: read-out: DIZ
[14] = system: Salmonella typhi; assay: Antibacterial activity against Salmonella typhi at 100 ug/ml after 24 hrs agar diffusion method; type: functional, Salmonella enterica subsp. enterica serovar Typhi; conditions: Salmonella enterica, read-out: DIZ
[15] = system: Proteus vulgaris; assay: Antibacterial activity against Proteus vulgaris at 75 ug/ml after 24 hrs agar diffusion method; type: functional; conditions: read-out: DIZ
[16] = system: Salmonella typhi; assay: Antibacterial activity against Salmonella typhi at 25 ug/ml after 24 hrs agar diffusion method; type: functional, Salmonella enterica subsp. enterica serovar Typhi; conditions: Salmonella enterica, read-out: DIZ

CCOC(=O)[C@@H]1[C@@H]([C@H]2[C@@H](c3ccccc3)C(=O)N2c2ccc(OC)cc2)CN(C)C12C(=O)c1ccccc1C2=O
zone of inhibition at 100 µg/mL [1]: 22 mm | zone of inhibition at 75 µg/mL [2]: 13 mm | zone of inhibition at 25 µg/mL [3]: 11 mm | zone of inhibition at 25 µg/mL [4]: 11 mm | zone of inhibition at 50 µg/mL [5]: 14 mm | zone of inhibition at 25 µg/mL [6]: 11 mm | zone of inhibition at 50 µg/mL [7]: 15 mm | zone of inhibition at 100 µg/mL [8]: 18 mm | zone of inhibition at 100 µg/mL [9]: 21 mm | zone of inhibition at 50 µg/mL [10]: 9 mm | zone of inhibition at 75 µg/mL [11]: 14 mm | zone of inhibition at 75 µg/mL [12]: 18 mm | zone of inhibition at 50 µg/mL [13]: 13 mm | zone of inhibition at 100 µg/mL [14]: 18 mm | zone of inhibition at 75 µg/mL [15]: 18 mm

CCOC(=O)[C@@H]1[C@@H]([C@H]2[C@@H](Oc3ccccc3)C(=O)N2c2ccc(OC)cc2)CN(C)[C@@]12C(=O)c1cccc3cccc2c13
zone of inhibition at 100 µg/mL [1]: 19 mm | zone of inhibition at 75 µg/mL [2]: 14 mm | zone of inhibition at 25 µg/mL [3]: 9 mm | zone of inhibition at 50 µg/mL [5]: 11 mm | zone of inhibition at 25 µg/mL [16]: 9 mm | zone of inhibition at 25 µg/mL [6]: 9 mm | zone of inhibition at 50 µg/mL [7]: 9 mm | zone of inhibition at 100 µg/mL [8]: 20 mm | zone of inhibition at 100 µg/mL [9]: 20 mm | zone of inhibition at 50 µg/mL [10]: 11 mm | zone of inhibition at 75 µg/mL [11]: 15 mm | zone of inhibition at 75 µg/mL [12]: 15 mm | zone of inhibition at 50 µg/mL [13]: 11 mm | zone of inhibition at 100 µg/mL [14]: 16 mm | zone of inhibition at 75 µg/mL [15]: 15 mm

CCOC(=O)[C@@H]1[C@@H]([C@H]2[C@@H](c3ccccc3)C(=O)N2c2ccc(OC)cc2)CN(C)[C@@]12C(=O)c1cccc3cccc2c13
zone of inhibition at 100 µg/mL [1]: 21 mm | zone of inhibition at 75 µg/mL [2]: 13 mm | zone of inhibition at 50 µg/mL [5]: 10 mm | zone of inhibition at 50 µg/mL [7]: 10 mm | zone of inhibition at 100 µg/mL [8]: 18 mm | zone of inhibition at 100 µg/mL [9]: 21 mm | zone of inhibition at 50 µg/mL [10]: 11 mm | zone of inhibition at 75 µg/mL [11]: 13 mm | zone of inhibition at 75 µg/mL [12]: 15 mm | zone of inhibition at 50 µg/mL [13]: 9 mm | zone of inhibition at 100 µg/mL [14]: 18 mm | zone of inhibition at 75 µg/mL [15]: 15 mm

CN(C)[C@@H]1C(O)=C(C(N)=O)C(=O)[C@@]2(O)C(O)=C3C(=O)c4c(O)cccc4[C@@](C)(O)[C@H]3C[C@@H]12 [TETRACYCLINE]
zone of inhibition at 100 µg/mL [1]: > 40 mm | zone of inhibition at 75 µg/mL [2]: 28 mm | zone of inhibition at 25 µg/mL [3]: 18 mm | zone of inhibition at 25 µg/mL [4]: 18 mm | zone of inhibition at 50 µg/mL [5]: 24 mm | zone of inhibition at 25 µg/mL [16]: 18 mm | zone of inhibition at 25 µg/mL [6]: 18 mm | zone of inhibition at 50 µg/mL [7]: 22 mm | zone of inhibition at 100 µg/mL [8]: > 40 mm | zone of inhibition at 100 µg/mL [9]: > 40 mm | zone of inhibition at 50 µg/mL [10]: 22 mm | zone of inhibition at 75 µg/mL [11]: 28 mm | zone of inhibition at 75 µg/mL [12]: 28 mm | zone of inhibition at 50 µg/mL [13]: 24 mm | zone of inhibition at 100 µg/mL [14]: > 40 mm | zone of inhibition at 75 µg/mL [15]: 28 mm

CCOC(=O)[C@@H]1[C@@H]([C@H]2[C@@H](Oc3ccccc3)C(=O)N2c2ccc(OC)cc2)C2CCCN2[C@@]12C(=O)c1cccc3cccc2c13 (stereo partly specified)
zone of inhibition at 100 µg/mL [1]: 18 mm | zone of inhibition at 25 µg/mL [3]: 10 mm | zone of inhibition at 50 µg/mL [5]: 11 mm | zone of inhibition at 25 µg/mL [6]: 9 mm | zone of inhibition at 50 µg/mL [7]: 11 mm | zone of inhibition at 100 µg/mL [8]: 20 mm | zone of inhibition at 100 µg/mL [9]: 20 mm | zone of inhibition at 75 µg/mL [11]: 16 mm | zone of inhibition at 75 µg/mL [12]: 14 mm | zone of inhibition at 50 µg/mL [13]: 13 mm | zone of inhibition at 75 µg/mL [15]: 16 mm

CCOC(=O)[C@@H]1[C@@H]([C@H]2[C@@H](c3ccccc3)C(=O)N2c2ccc(OC)cc2)C2CCCN2C12C(=O)c1ccccc1C2=O (stereo partly specified)
zone of inhibition at 100 µg/mL [1]: 28 mm | zone of inhibition at 75 µg/mL [2]: 14 mm | zone of inhibition at 25 µg/mL [3]: 10 mm | zone of inhibition at 25 µg/mL [4]: 9 mm | zone of inhibition at 50 µg/mL [5]: 17 mm | zone of inhibition at 25 µg/mL [16]: 9 mm | zone of inhibition at 25 µg/mL [6]: 12 mm | zone of inhibition at 50 µg/mL [7]: 13 mm | zone of inhibition at 100 µg/mL [8]: 23 mm | zone of inhibition at 100 µg/mL [9]: 24 mm | zone of inhibition at 50 µg/mL [10]: 12 mm | zone of inhibition at 75 µg/mL [11]: 16 mm | zone of inhibition at 75 µg/mL [12]: 16 mm | zone of inhibition at 50 µg/mL [13]: 15 mm | zone of inhibition at 100 µg/mL [14]: 20 mm | zone of inhibition at 75 µg/mL [15]: 20 mm

CCOC(=O)[C@@H]1[C@@H]([C@H]2[C@@H](Oc3ccccc3)C(=O)N2c2ccc(OC)cc2)CN(C)C12C(=O)c1ccccc1C2=O
zone of inhibition at 100 µg/mL [1]: 18 mm | zone of inhibition at 75 µg/mL [2]: 13 mm | zone of inhibition at 25 µg/mL [3]: 9 mm | zone of inhibition at 25 µg/mL [4]: 11 mm | zone of inhibition at 50 µg/mL [5]: 16 mm | zone of inhibition at 25 µg/mL [16]: 9 mm | zone of inhibition at 25 µg/mL [6]: 12 mm | zone of inhibition at 50 µg/mL [7]: 13 mm | zone of inhibition at 100 µg/mL [8]: 18 mm | zone of inhibition at 100 µg/mL [9]: 23 mm | zone of inhibition at 50 µg/mL [10]: 11 mm | zone of inhibition at 75 µg/mL [11]: 16 mm | zone of inhibition at 75 µg/mL [12]: 16 mm | zone of inhibition at 50 µg/mL [13]: 13 mm | zone of inhibition at 100 µg/mL [14]: 19 mm | zone of inhibition at 75 µg/mL [15]: 20 mm
